Assay results published in patent US4895835A, “Muramyl peptide derivatives and use thereof” (priority 1987, dated 1990).

What was measured:
BCG killed vaccine = experiment: Enhancing action on BCG vaccine (adjuvant activity), 24 hours foot-pad test; format: in vivo; details: ICR mouse; s.c. 0.2 ml mixture of BCG killed vaccine (100 μg/ml) and compound in Freund's incomplete adjuvant (1000 μg/ml); tuberculin 10 μg after 14 days; measured after 24 hours
Protocol: (1) Enhancing action on BCG vaccine (adjuvant activity)
0.2 ml of an equivalent weight mixture of a solution of BCG killed vaccine in physiological saline (100 μg/ml) and a solution of a compound of the invention in Freund's incomplete adjuvant (1000 μg/ml) was subcutaneously injected to the back of ICR mouse (one group consisting of 7 mice). After 14 days, 10 μg of tuberculin was intradermally injected into the hind foot-pad. Swelling of the foot-pad was measured after 24 hours (24 hours foot-pad test).
The control is the above mentioned mixture excluded a compound of the invention.

[1] = test system: B type hepatitis vaccine (HBs); experiment: Enhancing effect on hepatitis vaccine (adjuvant activity), IgG antibody by ELISA; format: in vivo; details: CDF1 mouse; for Anti HBs-ELISA unit, Primary response serum: i.p. 0.2 ml compound (100 μg/ml) mixed with HBs vaccine, serum at 3 weeks; for Anti HBs-ELISA unit, Secondary response serum: second i.p. injection of 0.2 ml test solution, serum at 2 weeks
Protocol: (2) Enhancing effect on hepatitis vaccine (adjuvant activity)
A compound of the invention was dissolved or suspended in physiological saline (100 μg/ml), and mixed with a solution of B type hepatitis vaccine (HBs) in physiological saline (100 μg/m) at an equivalent weight ratio to obtain the test solution. A solution excluded the compound of the invention from the test solution was used as control.
The test solution (0.2 ml) was intraperitoneally injected into CDF1 mouse (one group consisting of 10 mice). At 3 weeks after the administration, a blood was taken from the intravenous vein in eyeground of each the mice and centrifuged to obtain serum (primary response serum). Further, 0.2 ml of the test solution was again intraperitoneally injected into each mice, and at 2 weeks stage, serum was separated in the similar way (secondary response serum).
Value for IgG antibody against B type hepatitis virus of the resulting serum was measured by ELISA method.

[2] = test system: influenza HA vaccine (A/Bangkok/10/83 strain, H1N1); experiment: Enhancing effect on influenza HA vaccine (adjuvant activity), ELISA; format: in vivo; details: CDF1 mouse, compound (100 μg/ml) mixed with influenza HA vaccine (100 CCA/ml)
Protocol: (3) Enhancing effect on influenza HA vaccine (adjuvant activity)
A compound of the invention was dissolved or suspended in physiological saline (100 μg/ml). Separately, influenza HA vaccine (A/Bangkok/10/83 strain, H1N1) was dissolved in physiological saline (100 CCA/ml). These two solutions were mixed in an equivalent weight to make the test solution. Control is a solution excluded the compound of the invention from the test solution.
The test solution was administered into CDF1 mouse in a similar way to that of the test of enhancing action for hepatitis vaccine as mentioned above, to obtain primary and secondary response sera.

[3] = test system: leukemia cells of L-1210 mouse; experiment: Activation for macrophages: cytostatic rate of intraperitoneal macrophages on leukemia cells; format: in vivo; details: CDF1 mouse i.p. 500 μg/ml, 0.2 ml; macrophages collected after 4 days; macrophages:L-1210 cells 20:1; 72 hours
Protocol: (4) Activation for macrophages
A test solution of a compound of the invention in physicological saline (500 μg/ml, 0.2 ml) was intraperioneally injected into CDF1 mouse (one group consisting of mice). Intraperioneal macrophages which were collected after 4 days and leukemia cells of L-1210 mouse were mixed at the cell ratio of 20 and 1. Each 200 μl of the mixture was put on a microplate having 96 holes. After 72 hours, numbers of cells in each holes were counted, and cytostatic rate of the mixture was measured.

[4] = Stimulation effect on antibody producing cells (plaque numbers, Cunningham technique); format: in vivo, ICR mouse; details: for Plaque No.: ICR mouse, SRBC i.v. and compound 500 μg/ml, 0.2 ml i.v., splenic cells after 4 days; for Stimulation index: plaque number relative to control (saline) = 1
Protocol: (5) Stimulation effect on anti-body precluding cells
A solution of sheep […] (SRBC) in phosphate buffered physiological saline (5×10^7 cells/ml), 0.2 ml was injected into tail intravenous vein of ICR mouse (7 mice per group). At the same time, a solution of a compound of the invention in physiological saline (500 μg/ml), 0.2 ml was similarly injected. After 4 days, lien was picked up from the treated mouse to obtain splenic cells. Plaque numbers were measured by Cunningham technique.

E. coli (JC-2) = experiment: Phylactic effect, E. coli infection; format: in vivo; details: ICR mouse; compound 500 μg/ml, 0.2 ml i.p. one day before infection i.p. 1×10^7 /mouse; after 7 days of infection
Protocol: (§1) A solution of a compound of the invention in physiological saline (500 μg/ml), 0.2 ml was intraperitoneally injected into ICR mouse (20 mice per group). After a day, E. coli (JC-2) and Psud. aeruginosa (NCTC 10490) were incubated through intraperitoneal route so as to be at concentration of 1×10^7 /mouse. Survival rate after 7 days of infection was measured.

[5] = test system: Psud. aeruginosa (NCTC 10490); experiment: Phylactic effect, Psud. aeruginosa infection; format: in vivo; details: ICR mouse; compound 500 μg/ml, 0.2 ml i.p. one day before infection i.p. 1×10^7 /mouse; after 7 days of infection
Protocol: as §1

Meth A fibrosarcomas = experiment: Antitumour effect, Meth A fibrosarcoma; format: in vivo; details: BALB/C mouse; s.c. 0.2 ml mixture of Meth A cells (1×10^6 cells/ml) and compound (1,000 μg/ml); after 35 days
Protocol: Meth A fibrosarcomas were suspended in phosphate buffered physiological saline (1×10^6 cells/ml). Separately, a solution of a compound of the invention in physiological saline was prepared (1,000 μg/ml). An equivalent weight mixture of these two solution (0.2 ml) was subcutaneously injected into BALB/C mouse (20 mice per group). Survival rate after 35 days was measured.

CCCCCCCCCCCC(=O)O[C@H](CCCCCCCCCCC)CC(=O)OC[C@H]1OC(O)[C@H](NC(C)=O)[C@@H](O[C@H](C)C(=O)N[C@@H](C)C(=O)N[C@H](CCC(=O)OC)C(N)=O)[C@@H]1O (stereo partly drawn) [Example 1, N-[[2-O-{2-Acetamido-2,3-dideoxy-6-O-[(3R)-3-dodecanoyloxytetradecanoyl]-D-glucopyranos-3-yl}-D-lactoyl]]-L-alanyl-D-isoglutamine methyl ester]
Swelling of Foot-pad (BCG killed vaccine): 59.2 ± 15.1 × 0.01 mm | Anti HBs-ELISA unit, Primary response serum [1]: 10,800 ELISA unit | Anti HBs-ELISA unit, Secondary response serum [1]: 150,000 ELISA unit | Anti-influenza HA virus ELISA unit, Primary response serum [2]: 4,800 ELISA unit | Anti-influenza HA virus ELISA unit, Secondary response serum [2]: 34,000 ELISA unit | Cytostatic rate [3]: 40.0 ± 1.2% | Plaque No. [4]: 10.56 ± 8.3 × 10^3 | Stimulation index [4]: 2.2 | Survival rate, E. coli (E. coli (JC-2)): 50% | Survival rate, Psud. aeruginosa [5]: 45% | Survival rate (Meth A fibrosarcomas): 30%

CCCCCCCCCCCCCC(=O)O[C@H](CCCCCCCCCCC)CC(=O)OC[C@H]1OC(O)[C@H](NC(C)=O)[C@@H](O[C@H](C)C(=O)N[C@@H](C)C(=O)N[C@H](CCC(=O)OC)C(N)=O)[C@@H]1O (stereo partly drawn) [Example 2, N-[[2-O-{2-Acetamido-2,3-dideoxy-6-O-[(3R)-3-tetradecanoyloxytetradecanoyl]-D-glucopyranos-3-yl}-D-lactoyl]]-L-alanyl-D-isoglutamine methyl ester]
Swelling of Foot-pad (BCG killed vaccine): 57.4 ± 16.3 × 0.01 mm | Anti HBs-ELISA unit, Primary response serum [1]: 6,000 ELISA unit | Anti HBs-ELISA unit, Secondary response serum [1]: 195,000 ELISA unit | Anti-influenza HA virus ELISA unit, Primary response serum [2]: 3,100 ELISA unit | Anti-influenza HA virus ELISA unit, Secondary response serum [2]: 33,000 ELISA unit | Cytostatic rate [3]: 45.2 ± 1.1% | Plaque No. [4]: 8.23 ± 7.2 × 10^3 | Stimulation index [4]: 1.7 | Survival rate, E. coli (E. coli (JC-2)): 55% | Survival rate, Psud. aeruginosa [5]: 45% | Survival rate (Meth A fibrosarcomas): 30%

CCCCCCCCCCCCCCCC(=O)O[C@H](CCCCCCCCCCC)CC(=O)OC[C@H]1OC(O)[C@H](NC(C)=O)[C@@H](O[C@H](C)C(=O)N[C@@H](C)C(=O)N[C@H](CCC(=O)OC)C(N)=O)[C@@H]1O (stereo partly drawn) [Example 3, N-[[2-O-{2-Acetamido-2,3-dideoxy-6-O-[(3R)-3-hexadecanoyloytetradecanoyl]-D-glucopyranos-3-yl}-D-lactoyl]]-L-alanyl-D-isoglutamine methyl ester]
Swelling of Foot-pad (BCG killed vaccine): 66.2 ± 12.3 × 0.01 mm | Anti HBs-ELISA unit, Primary response serum [1]: 24,000 ELISA unit | Anti HBs-ELISA unit, Secondary response serum [1]: 575,000 ELISA unit | Anti-influenza HA virus ELISA unit, Primary response serum [2]: 5,200 ELISA unit | Anti-influenza HA virus ELISA unit, Secondary response serum [2]: 57,000 ELISA unit | Cytostatic rate [3]: 22.3 ± 1.0% | Plaque No. [4]: 21.23 ± 9.9 × 10^3 | Stimulation index [4]: 4.4 | Survival rate, E. coli (E. coli (JC-2)): 45% | Survival rate, Psud. aeruginosa [5]: 40% | Survival rate (Meth A fibrosarcomas): 20%

CCCCCCCCCCCC(=O)O[C@H](CCCCCCCCCCC)CC(=O)OC[C@H]1OC[C@H](NC(C)=O)[C@@H](O[C@H](C)C(=O)N[C@@H](C)C(=O)N[C@H](CCC(=O)OC)C(N)=O)[C@@H]1O [Example 4]
Swelling of Foot-pad (BCG killed vaccine): 78.6 ± 19.1 × 0.01 mm | Anti HBs-ELISA unit, Primary response serum [1]: 5,200 ELISA unit | Anti HBs-ELISA unit, Secondary response serum [1]: 175,000 ELISA unit | Anti-influenza HA virus ELISA unit, Primary response serum [2]: 2,300 ELISA unit | Anti-influenza HA virus ELISA unit, Secondary response serum [2]: 32,000 ELISA unit | Cytostatic rate [3]: 55.2 ± 2.8% | Plaque No. [4]: 6.67 ± 3.6 × 10^3 | Stimulation index [4]: 1.4 | Survival rate, E. coli (E. coli (JC-2)): 65% | Survival rate, Psud. aeruginosa [5]: 50% | Survival rate (Meth A fibrosarcomas): 35%

CCCCCCCCCCCCCC(=O)O[C@H](CCCCCCCCCCC)CC(=O)OC[C@H]1OC[C@H](NC(C)=O)[C@@H](O[C@H](C)C(=O)N[C@@H](C)C(=O)N[C@H](CCC(=O)OC)C(N)=O)[C@@H]1O [Example 5, N-[[2-O-{2-Acetamido-1,5-anhydro-2,3-dideoxy-6-O-[(3R)-3-tetradodecanoyloxytetradecanoyl]-D-glucitol-3-yl}-D-lactoyl]]-L-alanyl-D-isoglutamine methyl ester]
Swelling of Foot-pad (BCG killed vaccine): 69.3 ± 18.8 × 0.01 mm | Anti HBs-ELISA unit, Primary response serum [1]: 3,600 ELISA unit | Anti HBs-ELISA unit, Secondary response serum [1]: 120,000 ELISA unit | Anti-influenza HA virus ELISA unit, Primary response serum [2]: 1,800 ELISA unit | Anti-influenza HA virus ELISA unit, Secondary response serum [2]: 28,000 ELISA unit | Cytostatic rate [3]: 58.6 ± 2.9% | Plaque No. [4]: 5.83 ± 3.2 × 10^3 | Stimulation index [4]: 1.2 | Survival rate, E. coli (E. coli (JC-2)): 70% | Survival rate, Psud. aeruginosa [5]: 55% | Survival rate (Meth A fibrosarcomas): 35%

CCCCCCCCCCCCCCCC(=O)O[C@H](CCCCCCCCCCC)CC(=O)OC[C@H]1OC[C@H](NC(C)=O)[C@@H](O[C@H](C)C(=O)N[C@@H](C)C(=O)N[C@H](CCC(=O)OC)C(N)=O)[C@@H]1O [Example 6]
Swelling of Foot-pad (BCG killed vaccine): 86.4 ± 22.1 × 0.01 mm | Anti HBs-ELISA unit, Primary response serum [1]: 6,200 ELISA unit | Anti HBs-ELISA unit, Secondary response serum [1]: 220,000 ELISA unit | Anti-influenza HA virus ELISA unit, Primary response serum [2]: 2,500 ELISA unit | Anti-influenza HA virus ELISA unit, Secondary response serum [2]: 30,000 ELISA unit | Cytostatic rate [3]: 42.6 ± 3.2% | Plaque No. [4]: 6.81 ± 4.8 × 10^3 | Stimulation index [4]: 1.4 | Survival rate, E. coli (E. coli (JC-2)): 60% | Survival rate, Psud. aeruginosa [5]: 50% | Survival rate (Meth A fibrosarcomas): 30%

CCCCCCCCCCCC(=O)O[C@H](CCCCCCCCCCC)CC(=O)OC[C@H]1O[C@@H](S)[C@H](NC(C)=O)[C@@H](O[C@H](C)C(=O)N[C@@H](C)C(=O)N[C@H](CCC(=O)OC)C(N)=O)[C@@H]1O [Example 7, N-[[2-O-{2-Acetamido-2,3-dideoxy-6-O-[(3R)-3-dodecanoyloxytetradecanoyl]-1-thio-β-D-glucopyranos-3-yl}-D-lactoyl]]-L-alanyl-D-isoglutamine methyl ester]
Swelling of Foot-pad (BCG killed vaccine): 50.6 ± 13.6 × 0.01 mm | Anti HBs-ELISA unit, Primary response serum [1]: 2,500 ELISA unit | Anti HBs-ELISA unit, Secondary response serum [1]: 110,000 ELISA unit | Anti-influenza HA virus ELISA unit, Primary response serum [2]: 2,000 ELISA unit | Anti-influenza HA virus ELISA unit, Secondary response serum [2]: 26,000 ELISA unit | Cytostatic rate [3]: 22.8 ± 2.6% | Plaque No. [4]: 10.88 ± 9.8 × 10^3 | Stimulation index [4]: 2.3 | Survival rate, E. coli (E. coli (JC-2)): 30% | Survival rate, Psud. aeruginosa [5]: 20% | Survival rate (Meth A fibrosarcomas): 10%
